Data: patent publication US12268694B2, “Combination pharmaceutical agents as RSV inhibitors” (Enanta Pharmaceuticals, Inc., priority 2017, dated 2025)

How the values were obtained:
[1] = tested on: genotype A, "Long" strain RSV; experiment: RSV-A assay: CPE protection in HEp-2 cells, ATPlite readout; type: cell-based, human respiratory syncytial virus; settings: human respiratory syncytial virus, HEp-2, read-out: Human RSV-A (“Long” strain) EC50
Method in brief: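 HEp-2 cells (8,000/well) with 2-fold compound dilutions in duplicate, infected with Long-strain RSV at MOI 0.1 and incubated 5 days. Cell ATP measured by ATPlite luminescence to give EC50; uninfected parallel plate gives CC50.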

HEp-2 cells = experiment: Cytotoxicity in parallel to the RSV-A assay (no virus), ATPlite readout; type: cell-based, human
Protocol: (§1) Following extensive parameter testing, the final assay is run as follows: HEp-2 cells are seeded into the inner 60 wells of a 96-well plate at 8,000 cells per well in a volume of 50 μL using Growth Media (DMEM without phenol red, 1% L-Glut, 1% Penn/Strep, 1% nonessential amino acids, 10% heat-inactivated FBS). 2-fold serial dilutions of control and test compounds are added to the wells in duplicate in a total volume of 25 μL. Viral stock is then added to the wells at a multiplicity of infection (MOI) of 0.1 in a volume of 25 μL, bringing the total volume of each well to 100 μL. The MOI is calculated using the PFU/mL, or TCID50 if unavailable. Each 96-well plate has a control column of 6 wells with cells and virus but no compound (negative control, max CPE), a column with cells but no compound or virus (positive control, minimum CPE), and a column with no cells or virus or compound (background plate/reagent control). The control wells with cells but no virus are given an additional 25 μL of growth media containing an equal quantity of sucrose as those wells receiving the viral stock in order to keep consistent in media and volume conditions. The outer wells of the plate are filled with 125 μL of moat media (DMEM, 1% Penn/Strep) to act as a thermal and evaporative moat around the test wells. Following a 5-day incubation period, the plates are read using ATPlite (50 μL added per well), which quantifies the amount of ATP (a measure of cell health) present in each well. Assay plates are read using the Envision luminometer. In parallel, cytotoxicity is examined on an additional 96-well plate treated in an identical manner, but substituting the 25 μL of viral stock for 25 μL of growth media. […] EC50 ranges are as follows: A <0.4 μM; B 0.4-0.8 μM; C >0.8 μM and CC50 ranges are as follows: A >50 μM; B 10-50 μM; C <10 μM.

[2] = tested on: RSV genotype B, strain 9320; experiment: RSV-B assay: A549 cells infected with RSV-B, qPCR or ATPlite readout; type: cell-based; settings: human respiratory syncytial virus, A549, 144 h, read-out: Human RSV-B EC50
Source text: HEp-2 cells, (originally derived from tumors grown in irradiated-cortisonised weanling rats that had been injected with epidermoid carcinoma tissue from a person's larynx, but later found to be indistinguishable from HeLa cells by PCR DNA analysis), were used for the culturing of genotype B, strain 9320. Flasks were inoculated with RSV-B and viral stocks were collected once cytopathic effect (CPE) was greater than […]. Viral stocks in 25% sucrose media were snap frozen using liquid nitrogen to increase viral stability. Viral stock titers were quantified by tissue culture infectious dose 50% (TCID50) using 8,000 cells per well and 5-fold viral dilutions across a 96-well plate, cultured for 4 days. Viral stock titers were also quantified by a plaque forming unit assay, as described elsewhere.
The assay is run as follows: A549 cells (originally derived through explant culture from a person's carcinomatous lung tissue) are seeded into the inner 60 wells of a 96-well plate at 3,000 cells per well in a volume of 50 μL using A549 growth media (F-12K Media, 1% Penn/Strep, 1% nonessential amino acids, 10% heat-inactivated FBS). 2-fold serial dilutions of control and test compounds are added to the wells in duplicate in a total volume of 25 μL. Viral stock is then added to the wells at a multiplicity of infection (MOI) of 0.5 in a volume of 25 μL, bringing the total volume of each well to 100 μL. The MOI is calculated using the PFU/mL, or TCID50 if unavailable. Each 96-well plate has a control column of 6 wells with cells and virus but no compound (negative control, max CPE), a column with cells but no compound or virus (positive control, minimum CPE), and a column with no cells or virus or compound (background plate/reagent control). The control wells with cells but no virus are given an additional 25 μL of growth media containing an equal quantity of sucrose as those wells receiving the viral stock in order to keep consistent in media and volume conditions. The outer wells of the plate are filled with 125 μL of moat media (DMEM, 1% Penn/Strep) to act as a thermal and evaporative moat around the test wells. 6 days post infection, the plates are read using qPCR or ATP lite (50 μL added per well), which quantifies the amount of ATP (a measure of cell health) present in each well. Assay plates treated with APTlite are read using the Envision luminometer. […] EC50 ranges are as follows: A <0.4 μM; B 0.4-0.8 μM; C >0.8 μM.

[3] = Cytotoxicity in parallel to the RSV-A assay (no virus), ATPlite readout; type: cell-based, human; settings: human, HEp-2 cells (uninfected)
Protocol: as §1

O=C1Nc2ccccc2C(c2ccccc2)=N[C@@H]1Nc1nnc(-c2ccc(F)cc2)o1 [Example 7a]
EC50 [1]: 400 to 800 nM | CC50 (HEp-2 cells): > 50000 nM | EC50 [2]: > 800 nM

O=C1Nc2ccccc2C(c2ccccc2)=NC1Nc1nnc(-c2ccc3ncsc3c2)o1 (stereo not shown) [Example 42]
EC50 [1]: 400 to 800 nM | CC50 at 5 days [3]: > 50000 nM

O=C1Nc2ccccc2C(c2ccccc2)=N[C@@H]1Nc1nnc(-c2nc(-c3cccnc3)sc2N2CCOCC2)o1 [Example 388]
EC50 [1]: < 400 nM | EC50 [2]: < 400 nM

CC(C)n1cc(-c2nnc(N[C@H]3N=C(c4ccccc4)c4ccccc4NC3=O)o2)c(N2CCOCC2)n1 [Example 403]
EC50 [1]: < 400 nM | EC50 [2]: < 400 nM

CC(F)(F)c1nc(-c2nnc(N[C@H]3N=C(c4ccccc4)c4ccccc4NC3=O)o2)c(N2CCOCC2)s1 [Example 407]
EC50 [1]: < 400 nM | EC50 [2]: < 400 nM

O=C1Nc2ccccc2C(c2ccccc2)=N[C@@H]1Nc1nnc(-c2nc(-c3ccncc3)sc2N2CCOCC2)o1 [Example 429]
EC50 [1]: < 400 nM | EC50 [2]: < 400 nM
